Measurements reported in ChEMBL document CHEMBL1201862, “PubChem BioAssay data set” (2004).
Active and inactive are the calls of the source.

Assays:
Caspase-3 = target: T1, Caspase-3 (Homo sapiens, UniProt P42574); assay type: functional;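 note: Dose-response selectivity test against caspase-3 for candidate inhibitors of sentrin-specific proteases (SENPs)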
T1 sequence (P42574 whole entry): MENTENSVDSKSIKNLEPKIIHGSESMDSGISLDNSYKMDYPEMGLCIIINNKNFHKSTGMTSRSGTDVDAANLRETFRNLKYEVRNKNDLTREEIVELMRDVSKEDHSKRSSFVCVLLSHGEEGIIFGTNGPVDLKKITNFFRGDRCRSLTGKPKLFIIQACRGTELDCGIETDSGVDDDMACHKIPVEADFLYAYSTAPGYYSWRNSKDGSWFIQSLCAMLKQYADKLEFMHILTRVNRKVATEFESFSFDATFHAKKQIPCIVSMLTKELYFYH

[1] = target: T2, Sentrin-specific protease 6 (Homo sapiens, UniProt Q9GZR1); assay type: functional;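 note: Luminescence-based dose-response confirmatory assay of SENP6 inhibition, following up an ultra-high-throughput screen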
T2 sequence (Q9GZR1 whole entry): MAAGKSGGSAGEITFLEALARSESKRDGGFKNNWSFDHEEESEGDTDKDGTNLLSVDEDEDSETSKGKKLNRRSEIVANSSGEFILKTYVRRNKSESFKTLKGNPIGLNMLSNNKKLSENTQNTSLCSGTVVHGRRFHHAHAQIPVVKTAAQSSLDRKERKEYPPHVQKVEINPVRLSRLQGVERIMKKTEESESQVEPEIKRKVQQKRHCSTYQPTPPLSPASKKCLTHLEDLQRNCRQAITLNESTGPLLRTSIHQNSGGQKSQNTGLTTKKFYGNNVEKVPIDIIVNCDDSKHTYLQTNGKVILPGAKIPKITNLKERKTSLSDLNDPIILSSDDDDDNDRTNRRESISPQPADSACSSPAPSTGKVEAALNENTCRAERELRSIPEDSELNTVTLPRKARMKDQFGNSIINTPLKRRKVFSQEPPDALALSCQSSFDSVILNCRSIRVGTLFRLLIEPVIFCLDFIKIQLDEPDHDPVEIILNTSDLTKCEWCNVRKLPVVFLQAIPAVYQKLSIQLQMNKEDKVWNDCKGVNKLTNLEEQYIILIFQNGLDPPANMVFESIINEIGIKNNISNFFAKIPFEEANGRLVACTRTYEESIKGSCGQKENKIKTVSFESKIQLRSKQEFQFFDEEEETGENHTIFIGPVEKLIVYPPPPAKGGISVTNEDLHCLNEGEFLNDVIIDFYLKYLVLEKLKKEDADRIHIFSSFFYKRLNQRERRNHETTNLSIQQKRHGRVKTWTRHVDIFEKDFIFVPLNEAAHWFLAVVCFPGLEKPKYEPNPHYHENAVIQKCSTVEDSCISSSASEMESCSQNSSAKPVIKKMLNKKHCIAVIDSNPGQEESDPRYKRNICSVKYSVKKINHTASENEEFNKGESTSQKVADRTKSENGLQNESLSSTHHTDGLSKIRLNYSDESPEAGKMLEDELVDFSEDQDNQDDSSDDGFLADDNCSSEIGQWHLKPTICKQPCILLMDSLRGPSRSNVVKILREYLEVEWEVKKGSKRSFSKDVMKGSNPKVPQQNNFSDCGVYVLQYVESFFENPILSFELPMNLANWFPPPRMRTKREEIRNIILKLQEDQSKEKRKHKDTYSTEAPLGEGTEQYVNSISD

[2] = target: Calcium/calmodulin-dependent protein kinase kinase 2 (Homo sapiens, UniProt Q96RR4); experiment: Navigating the Kinome. Panel member name: CAMKK2; assay type: functional
[3] = target: Serine/threonine-protein kinase PAK 4 (Homo sapiens, UniProt O96013); assay type: functional;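 note: value obtained within a kinome profiling panel in which PAK4 was one of the panel members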
[4] = target: Platelet-derived growth factor receptor alpha (Homo sapiens, UniProt P16234); experiment: Navigating the Kinome. Panel member name: PDGFRA; assay type: functional
[5] = target: Maternal embryonic leucine zipper kinase (Homo sapiens, UniProt Q14680); assay type: functional
[6] = target: Tyrosine-protein kinase JAK3 (Homo sapiens, UniProt P52333); assay type: functional
[7] = target: Rho-associated protein kinase 2 (Homo sapiens, UniProt O75116); assay type: functional
[8] = target: Mitogen-activated protein kinase 10 (Homo sapiens, UniProt P53779); experiment: Navigating the Kinome. Panel member name: MAPK10; assay type: functional
[9] = target: Tyrosine-protein kinase JAK2 (Homo sapiens, UniProt O60674); assay type: functional;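 note: JAK2 tested as one member of a kinase panel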
[10] = target: Death-associated protein kinase 3 (Homo sapiens, UniProt O43293); assay type: functional;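 note: measured as one member of a kinome-wide profiling panel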
[11] = target: Casein kinase II subunit alpha (Homo sapiens, UniProt P68400); assay type: functional
[12] = target: Serine/threonine-protein kinase Nek2 (Homo sapiens, UniProt P51955); assay type: functional
[13] = target: G protein-coupled receptor kinase 5 (Homo sapiens, UniProt P34947); experiment: Navigating the Kinome. Panel member name: GPRK5; assay type: functional
[14] = target: Mitogen-activated protein kinase 8 (Homo sapiens, UniProt P45983); assay type: functional;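 note: value comes from one member of a kinome-wide kinase profiling panel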
[15] = target: MAP/microtubule affinity-regulating kinase 3 (Homo sapiens, UniProt P27448); assay type: functional;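 note: MARK3 affinity measured as one member of a kinome panel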
[16] = target: Casein kinase I isoform delta (Homo sapiens, UniProt P48730); assay type: functional;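 note: measured as one member (CSNK1D) of a kinome panel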
[17] = target: Tyrosine-protein kinase BTK (Homo sapiens, UniProt Q06187); assay type: functional
[18] = target: Vascular endothelial growth factor receptor 2 (Homo sapiens, UniProt P35968); assay type: functional
[19] = target: Calcium/calmodulin-dependent protein kinase type II subunit alpha (Homo sapiens, UniProt Q9UQM7); experiment: Navigating the Kinome. Panel member name: CAMK2A; assay type: functional
[20] = target: Calcium/calmodulin-dependent protein kinase type II subunit gamma (Homo sapiens, UniProt Q13555); assay type: functional
[21] = target: Vascular endothelial growth factor receptor 3 (Homo sapiens, UniProt P35916); assay type: functional;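 note: value from a kinome-wide profiling panel, with FLT4 as the panel member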
[22] = target: Vascular endothelial growth factor receptor 1 (Homo sapiens, UniProt P17948); assay type: functional;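 note: measured within a kinome-wide profiling panel, FLT1 as the panel member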
Activated CDC42 kinase 1 = Activated CDC42 kinase 1 (Homo sapiens, UniProt Q07912); experiment: Navigating the Kinome. Panel member name: ACK1; assay type: functional
[23] = target: Tyrosine-protein kinase ABL1 (Homo sapiens, UniProt P00519); assay type: functional
Vero = Vero cell cytotoxicity, cytotoxicity control for flavivirus capping enzyme inhibitors (AID 588742); assay type: functional; settings: Chlorocebus sabaeus
[24] = insulin promoter down-regulators in MIN6 cells, imaging, high-content screening, mouse beta cells (AID 1628); assay type: functional
Nonstructural protein 1 = Nonstructural protein 1 (Influenza A virus, UniProt Q194T2); assay type: functional, Influenza A virus (A/California/07/2009(H1N1))
Chain of Nonstructural protein 1 (Q194T2 whole entry): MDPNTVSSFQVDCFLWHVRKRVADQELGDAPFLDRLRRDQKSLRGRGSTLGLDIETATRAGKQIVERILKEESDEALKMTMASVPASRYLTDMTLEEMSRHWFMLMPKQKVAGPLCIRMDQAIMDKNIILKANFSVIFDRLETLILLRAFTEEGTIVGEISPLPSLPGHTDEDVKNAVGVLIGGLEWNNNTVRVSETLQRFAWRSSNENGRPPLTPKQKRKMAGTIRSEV

Chain of Calcium/calmodulin-dependent protein kinase type II subunit gamma (Q13555 whole entry): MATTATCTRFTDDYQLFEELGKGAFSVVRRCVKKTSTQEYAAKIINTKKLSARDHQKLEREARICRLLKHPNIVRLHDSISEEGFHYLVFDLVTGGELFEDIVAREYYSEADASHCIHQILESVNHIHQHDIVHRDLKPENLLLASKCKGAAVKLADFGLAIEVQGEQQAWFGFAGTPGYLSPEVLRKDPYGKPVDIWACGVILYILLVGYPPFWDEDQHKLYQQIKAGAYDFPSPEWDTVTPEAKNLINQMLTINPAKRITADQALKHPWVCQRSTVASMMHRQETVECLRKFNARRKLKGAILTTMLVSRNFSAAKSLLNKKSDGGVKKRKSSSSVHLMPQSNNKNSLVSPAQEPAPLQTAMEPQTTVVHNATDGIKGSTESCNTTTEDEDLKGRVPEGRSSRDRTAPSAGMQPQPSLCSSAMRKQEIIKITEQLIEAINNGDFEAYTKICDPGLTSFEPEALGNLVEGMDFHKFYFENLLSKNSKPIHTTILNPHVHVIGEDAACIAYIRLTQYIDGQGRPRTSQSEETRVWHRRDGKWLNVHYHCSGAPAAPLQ
Chain of Tyrosine-protein kinase JAK3 (P52333 whole entry): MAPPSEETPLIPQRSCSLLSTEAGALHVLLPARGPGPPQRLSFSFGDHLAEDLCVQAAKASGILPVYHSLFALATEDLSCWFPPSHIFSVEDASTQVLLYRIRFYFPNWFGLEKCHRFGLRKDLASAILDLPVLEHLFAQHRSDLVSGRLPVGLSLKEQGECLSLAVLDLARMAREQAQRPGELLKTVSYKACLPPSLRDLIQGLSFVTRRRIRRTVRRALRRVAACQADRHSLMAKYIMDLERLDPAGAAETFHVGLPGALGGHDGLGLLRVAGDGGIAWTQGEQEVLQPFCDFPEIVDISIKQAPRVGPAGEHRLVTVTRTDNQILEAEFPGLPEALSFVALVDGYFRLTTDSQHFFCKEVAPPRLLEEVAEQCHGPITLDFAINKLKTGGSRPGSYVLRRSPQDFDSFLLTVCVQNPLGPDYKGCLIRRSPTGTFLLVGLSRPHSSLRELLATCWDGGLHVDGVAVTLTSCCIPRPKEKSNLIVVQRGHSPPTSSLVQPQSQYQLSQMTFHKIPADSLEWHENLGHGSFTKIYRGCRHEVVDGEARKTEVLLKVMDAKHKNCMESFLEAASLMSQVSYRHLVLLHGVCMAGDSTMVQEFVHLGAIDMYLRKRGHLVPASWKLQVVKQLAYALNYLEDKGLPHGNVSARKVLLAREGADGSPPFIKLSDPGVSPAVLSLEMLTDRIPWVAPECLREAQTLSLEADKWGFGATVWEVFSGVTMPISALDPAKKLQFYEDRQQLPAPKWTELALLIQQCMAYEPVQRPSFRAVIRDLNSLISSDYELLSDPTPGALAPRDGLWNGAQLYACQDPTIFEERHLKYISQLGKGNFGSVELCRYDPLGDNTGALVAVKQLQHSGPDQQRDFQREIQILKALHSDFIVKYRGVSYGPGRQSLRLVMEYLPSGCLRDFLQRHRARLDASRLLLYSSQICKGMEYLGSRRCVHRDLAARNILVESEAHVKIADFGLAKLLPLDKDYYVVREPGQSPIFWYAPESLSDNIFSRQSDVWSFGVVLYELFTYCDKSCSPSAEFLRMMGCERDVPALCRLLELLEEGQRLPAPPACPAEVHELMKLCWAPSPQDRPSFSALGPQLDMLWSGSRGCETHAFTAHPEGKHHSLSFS
Chain of Vascular endothelial growth factor receptor 3 (P35916 whole entry): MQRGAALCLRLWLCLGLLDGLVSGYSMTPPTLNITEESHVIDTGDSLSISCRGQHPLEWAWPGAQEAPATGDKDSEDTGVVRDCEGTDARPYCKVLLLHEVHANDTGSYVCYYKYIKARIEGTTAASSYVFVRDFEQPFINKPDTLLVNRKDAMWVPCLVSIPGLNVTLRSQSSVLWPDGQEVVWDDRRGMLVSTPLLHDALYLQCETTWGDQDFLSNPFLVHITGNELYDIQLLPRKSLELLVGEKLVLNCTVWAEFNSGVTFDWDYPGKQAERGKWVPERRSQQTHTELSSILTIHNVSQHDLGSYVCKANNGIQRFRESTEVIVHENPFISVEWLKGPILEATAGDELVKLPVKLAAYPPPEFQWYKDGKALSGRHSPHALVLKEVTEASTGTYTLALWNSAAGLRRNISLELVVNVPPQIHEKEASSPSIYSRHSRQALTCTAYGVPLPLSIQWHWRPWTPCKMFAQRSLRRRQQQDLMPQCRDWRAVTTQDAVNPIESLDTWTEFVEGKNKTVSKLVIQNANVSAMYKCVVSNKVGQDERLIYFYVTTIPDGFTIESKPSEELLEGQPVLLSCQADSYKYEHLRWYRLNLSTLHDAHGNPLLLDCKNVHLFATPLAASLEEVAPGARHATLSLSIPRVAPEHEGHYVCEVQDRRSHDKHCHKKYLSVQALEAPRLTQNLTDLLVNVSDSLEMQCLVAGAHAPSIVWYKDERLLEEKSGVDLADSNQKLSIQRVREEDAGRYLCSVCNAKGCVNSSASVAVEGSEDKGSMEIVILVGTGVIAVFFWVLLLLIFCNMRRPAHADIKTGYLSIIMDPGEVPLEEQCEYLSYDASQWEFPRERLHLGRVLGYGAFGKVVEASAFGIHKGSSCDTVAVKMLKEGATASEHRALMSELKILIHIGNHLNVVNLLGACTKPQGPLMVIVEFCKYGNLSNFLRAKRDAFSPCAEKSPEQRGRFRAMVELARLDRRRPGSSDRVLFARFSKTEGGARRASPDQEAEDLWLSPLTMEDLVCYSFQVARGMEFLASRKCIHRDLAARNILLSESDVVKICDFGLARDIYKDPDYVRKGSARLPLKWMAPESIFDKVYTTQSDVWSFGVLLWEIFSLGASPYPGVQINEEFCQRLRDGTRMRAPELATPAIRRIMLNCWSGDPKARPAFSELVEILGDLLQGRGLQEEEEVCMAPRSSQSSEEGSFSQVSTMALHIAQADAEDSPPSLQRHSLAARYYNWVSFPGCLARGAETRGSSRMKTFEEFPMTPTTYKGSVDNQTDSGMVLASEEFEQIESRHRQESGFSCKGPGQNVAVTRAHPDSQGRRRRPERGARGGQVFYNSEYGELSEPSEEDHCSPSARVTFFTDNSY
Chain of G protein-coupled receptor kinase 5 (P34947 whole entry): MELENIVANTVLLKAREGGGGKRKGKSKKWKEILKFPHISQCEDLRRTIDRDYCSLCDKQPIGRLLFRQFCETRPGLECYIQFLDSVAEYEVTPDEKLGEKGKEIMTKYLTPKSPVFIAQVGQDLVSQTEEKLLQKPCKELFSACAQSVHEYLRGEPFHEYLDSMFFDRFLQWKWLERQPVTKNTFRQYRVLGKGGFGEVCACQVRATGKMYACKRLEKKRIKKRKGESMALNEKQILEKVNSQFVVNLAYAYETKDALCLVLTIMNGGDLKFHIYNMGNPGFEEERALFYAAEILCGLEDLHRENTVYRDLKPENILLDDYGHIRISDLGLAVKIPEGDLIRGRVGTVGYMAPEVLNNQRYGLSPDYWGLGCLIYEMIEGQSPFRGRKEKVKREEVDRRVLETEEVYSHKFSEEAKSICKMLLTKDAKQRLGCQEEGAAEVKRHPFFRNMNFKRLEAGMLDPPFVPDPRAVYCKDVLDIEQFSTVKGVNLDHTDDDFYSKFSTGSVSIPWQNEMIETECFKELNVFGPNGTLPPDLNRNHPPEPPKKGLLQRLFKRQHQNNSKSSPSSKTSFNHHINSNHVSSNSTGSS
Chain of Platelet-derived growth factor receptor alpha (P16234 whole entry): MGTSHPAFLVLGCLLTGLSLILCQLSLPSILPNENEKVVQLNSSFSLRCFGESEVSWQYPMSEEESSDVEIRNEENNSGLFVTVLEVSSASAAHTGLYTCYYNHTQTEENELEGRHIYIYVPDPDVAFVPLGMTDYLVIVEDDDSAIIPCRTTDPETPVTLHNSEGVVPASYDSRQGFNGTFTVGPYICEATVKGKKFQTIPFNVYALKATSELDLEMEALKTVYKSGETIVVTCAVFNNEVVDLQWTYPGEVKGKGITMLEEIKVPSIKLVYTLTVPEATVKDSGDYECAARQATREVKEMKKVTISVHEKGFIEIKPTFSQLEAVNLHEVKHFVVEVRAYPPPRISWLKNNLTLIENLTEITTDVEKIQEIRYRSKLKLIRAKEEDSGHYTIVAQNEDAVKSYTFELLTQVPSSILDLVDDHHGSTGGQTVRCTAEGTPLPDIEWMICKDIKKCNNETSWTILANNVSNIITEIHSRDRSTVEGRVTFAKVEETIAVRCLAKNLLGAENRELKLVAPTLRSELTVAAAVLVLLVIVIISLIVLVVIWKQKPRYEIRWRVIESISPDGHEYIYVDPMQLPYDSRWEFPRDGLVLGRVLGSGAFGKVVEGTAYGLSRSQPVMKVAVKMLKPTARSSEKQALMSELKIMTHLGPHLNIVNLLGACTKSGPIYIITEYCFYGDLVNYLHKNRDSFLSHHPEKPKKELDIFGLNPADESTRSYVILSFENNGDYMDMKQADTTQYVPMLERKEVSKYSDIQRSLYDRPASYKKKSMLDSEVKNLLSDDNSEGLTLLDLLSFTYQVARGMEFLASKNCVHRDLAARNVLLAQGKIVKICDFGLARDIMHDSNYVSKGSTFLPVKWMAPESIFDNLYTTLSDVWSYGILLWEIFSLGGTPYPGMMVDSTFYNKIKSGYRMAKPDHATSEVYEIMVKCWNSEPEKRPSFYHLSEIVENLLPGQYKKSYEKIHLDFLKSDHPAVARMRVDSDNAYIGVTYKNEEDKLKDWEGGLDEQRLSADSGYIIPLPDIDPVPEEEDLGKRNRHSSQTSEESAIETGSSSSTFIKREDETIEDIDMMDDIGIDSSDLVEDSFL

Structure (SMILES): O=C(COC(=O)c1ccc([N+](=O)[O-])s1)NCCc1ccccc1
- IC50 (Caspase-3): 9700 nM (active)
- IC50 [1]: 4790 nM (active)

Structure (SMILES): CCOC(=O)c1c(NS(=O)(=O)c2ccccc2)n(CCCOC)c2nc3ccccc3nc12
- IC50 (Caspase-3): 10000 nM (active)
- IC50 [1]: 596 nM (active)

Structure (SMILES): OC1CCC(Nc2cc(Cl)nc(-c3c[nH]c4ncccc34)n2)CC1 (stereo not given)
- Ki [2]: > 2510 nM (inactive)
- Ki [3]: 100 nM (active)
- Ki [4]: > 1580 nM (inactive)
- Ki [5]: 200 nM (active)
- Ki [6]: 200 nM (active)
- Ki [7]: 12.6 nM (active)
- Ki [8]: > 3160 nM (inactive)
- Ki [9]: 158 nM (active)
- Ki [10]: 316 nM (active)
- Ki [11]: 100 nM (active)
- Ki [12]: 3980 nM (active)
- Ki [13]: > 3980 nM (inactive)
- Ki [14]: 2510 nM (active)
- Ki [15]: 398 nM (active)
- Ki [16]: 200 nM (active)
- Ki [17]: > 2510 nM (inactive)
- Ki [18]: 1260 nM (active)
- Ki [19]: > 3160 nM (inactive)
- Ki [20]: 794 nM (active)
- Ki [21]: 63.1 nM (active)
- Ki [22]: > 1580 nM (inactive)
- Ki (Activated CDC42 kinase 1): > 3980 nM (inactive)
- Ki [23]: > 631 nM (inactive)

Structure (SMILES): COCC/N=c1\scc(-c2cccs2)n1/N=C/c1ccc(O)c(O)c1O
- CC50 (Vero): 22800 nM (active)
- IC50 [24]: > 16000 nM (inactive)
- IC50 (Nonstructural protein 1): 42900 nM (active)
